Measurements: patent US20250041286A1, “CANCER TREATMENT USING KETOTIFEN IN COMBINATION WITH A CHECKPOINT INHIBITOR” (Materia Therapeutics Inc., priority 2021, published 2025)
“Also recorded” adds a separate entry of the source.

Legend:
Format in all cases: in vivo, mouse
MCA205 tumors [1] = test: Hyaluronan evaluation, HABP1 immunofluorescence; details: daily ketotifen 10 mg/kg
Experimental: (§1) Besides collagen, other structural components of tumor stroma can exert pressure and deform vessels. Such an example is the hyaluronan (e.g., hyaluronic acid), which binds to and retains excessive fluid generating gel-like regions within the tissue. Therefore, hyaluronic acid staining was performed in both sarcoma mouse models.
(§2) Tumors were removed from mice, washed twice in 1×PBS for 10 min, and incubated with 4% PFA overnight at 4° C. The fixative was aspirated, and samples were washed twice in 1×PBS for 10 min. Tissue samples were dehydrated in successive ethanol steps and xylene followed by paraffin embedding. Serial sections ([…]) of paraffin-embedded tissues were produced using the microtome (Accu-Cut SRM 200 Rotary Microtome, SAKURA), flattened out into water, and allowed to dry overnight at 37° C. Sections were then deparaffinized and rehydrated as routinely processed for histology. Tissue sections were subjected to antigen retrieval (microwave heat treatment with TriSodium Citrate, pH 6, for 20 min), washed with 1×TBS/0.025% Triton X-100 (TBS-T), and incubated in blocking solution (2% BSA, 0.2% Triton 100×) for 2 hours at room temperature. […] Hyaluronan was detected following incubation with streptavidin-FITC conjugate (Invitrogen, 1:1000) and nuclei were stained with DAPI stain at room temperature for 1 hour in the dark. […]

K7M2wt tumors [2] = test: Hyaluronan evaluation, HABP1 immunofluorescence; details: daily ketotifen 10 mg/kg
Experimental: as §1, §2

MCA205 tumors [3] = test: Proliferation of CAFs, α-SMA / Ki-67 immunostaining; details: 10 mg/kg ketotifen
Experimental: (§3) Proliferation of CAFs was evaluated by immunostaining for the presence of alpha-smooth muscle actin (α-SMA) (ab5694, Abcam; diluted 1:50) protein and Ki-67 (Abcam; diluted 1:200) proliferation marker following antigen retrieval, 1 hour incubation in serum solution (10% FBS, 3% donkey serum in 1×PBS), and 1 hour incubation in blocking solution for endogenous mouse IgG (Abcam; diluted 1:100). Following washes with TBS-T (0.25% Tween-20), Alexa Fluor-647 anti-rabbit IgG (H+L) (Invitrogen; diluted 1:400) and Fluor-488 anti-rat IgG (H+L) (Invitrogen; diluted 1:400) secondary antibodies and DAPR (Sigma diluted 1:100 of 1 mg/mL stock) were applied for 1 hour at room temperature. Sections were then mounted on microscope slides using the ProLong gold antifade mountant (Invitrogen) and covered with a glass coverslip. CAF proliferation fraction was detected as the ratio of overlapping α-SMA (green) and Ki67 (red) positive signal to total CAF signal (α-SMA^+), indicating CAFs.

K7M2wt tumors [4] = test: as above; details: 10 mg/kg ketotifen
Experimental: as §3

K7M2wt tumors [5] = test: Immunofluorescence of T cells (CD3, CD8/Ki67, CD3/CD31) in tumor sections; details: Ki67/CD8 staining; concluding statement
From the text: Immunofluorescence staining for Ki67 and CD8, performed as described above, confirmed the activation status of recruited CD8^+ T cells in osteosarcoma tumors (K7M2wt tumors) (FIGS. 9C-9D). K7M2wt tissue sections were then stained for pimonidazole adducts as a measure of hypoxia formation.
Immunofluorescence staining of CD3 and CD31 endothelial marker was used to assess the presence of T cells in the proximity of tumor vessel capillaries. PFA-fixed tissue cryosections of K7M2wt osteosarcoma tumors were incubated with primary rabbit anti-CD31 (Abcam, 1:50) and rat anti-CD3 (BioLegend, 1:50) overnight at 4° C. CD31 signal was detected with Alexa Fluor-488 anti-rabbit IgG (H+L) (Invitrogen, 1:400) and CD3 signal with Alexa Fluor-647 anti-rat IgG (H+L) (Invitrogen, 1:400) secondary antibodies. Cell nuclei were stained with DAPI. Tumor associated T cell to vessel content was determined by the overlapping CD31 and CD3 area fraction normalized to DAPI staining.

MCA205 tumors [6] = test: Vessel normalization, NG2/CD31 pericyte coverage and open lumen fraction
Experimental: To assess whether MC inhibition could normalize the structure of tumor blood vessels, which can further improve perfusion, the effect of ketotifen on vascular permeability was assessed. […] Instead, an upregulation of IFN-γ transcription levels in MCA205 tumors following 10 mg/kg ketotifen treatment was observed (FIG. 1D). IFNγ is an angiostatic protein whose concentration in the TME has been related to vessel normalization and reduced vessel leakiness.

MCA205 tumors [7] = test: Vascular and functional perfusion, contrast-enhanced ultrasound; details: 10 mg/kg ketotifen, day 3 and day 7
Experimental: (§4) Vascular perfusion and functional perfusion were measured simultaneously during the course of ketotifen treatment, at day 3 and day 7, using contrast-enhanced ultrasound in mice bearing MCA205 and mice bearing K7M2wt tumors. Tumor perfusion was assessed after bolus injection of 8 μl SonoVue/Lumason contrast agent (Bracco Diagnostics, Geneva, Switzerland). SonoVue contains sulphur hexafluoride microbubbles encapsulated with a phosphoilipid shell and having a mean diameter of 2.5 μm. It is delivered as a retro-orbital injection since tail vein microbubble injections tend to have high variability. Prior to each ultrasound application, mice were anesthetized by i.p. injection of Avertin (200 mg/kg).

K7M2wt tumors [8] = test: as above; details: 10 mg/kg ketotifen, day 3 and day 7
Experimental: as §4

MCA205 cells = test: Re-challenge of long-term survivors with MCA205 cells; details: re-challenge with 2.5×10^5 MCA205 cells s.c., 80 days after resection of primary tumors
From the text: Since doxorubicin has potential to establish favorable immunogenic conditions within the TME, which could affect the efficacy of immunotherapy, it was investigated if this immune response is preserved against rechallenge of long-term survivors with the same cell line. Mice were considered long-term survivors if no tumor was detected 80 days after surgical resection of MCA205 primary tumors. Five long-term survivors from each treatment group were further re-challenged with 2.5×10^5 MCA205 cells injected subcutaneously into the flank region. Cells were prepared in 50 μl of PBS. Naïve mice were implanted in parallel as controls.

**Q.** For `CN1CCC(=C2c3ccccc3CC(=O)c3sccc32)CC1` [ketotifen], which “expression of hyaluronan protein (HABP1 staining)” value (MCA205 tumors [1]) is on record?
**A.** The value was “reduced”.

**Q.** And the “expression of hyaluronan protein (HABP1 staining)” value (K7M2wt tumors [2])?
**A.** Its value is “reduced”.

**Q.** What about the “CAF levels and proliferation activity (α-SMA, Ki-67)” value (MCA205 tumors [3]) of the same molecule?
**A.** Its value is “decrease”.

**Q.** And the “CAF levels and proliferation activity (α-SMA, Ki-67)” value (K7M2wt tumors [4])?
**A.** Its value is “decrease”.

**Q.** What about the “fraction of CD8+ T cells proliferating” value (K7M2wt tumors [5]) of the same molecule?
**A.** Its value is “double”.

**Q.** What about the “fraction of vessels with open lumen” value (MCA205 tumors [6]; MCA205 tumors, CD31 image analysis) of the same molecule?
**A.** The value was “increase the fraction of vessels with open lumen”.

**Q.** And the “pericyte coverage of the tumor vasculature (NG2/CD31 colocalization)” value (MCA205 tumors [6]; ketotifen 5, 10 and 25 mg/kg compared to the lowest dose and untreated control)?
**A.** The value was “increase”.

**Q.** What about the “vascular and functional perfusion” value (MCA205 tumors [7]) of the same molecule?
**A.** Its value is “significant increase; also recorded: highly effective at increasing vessel perfusion”.

**Q.** What about the “vascular and functional perfusion” value (K7M2wt tumors [8]) of the same molecule?
**A.** The value was “significant increase; also recorded: highly effective at increasing vessel perfusion”.

**Q.** What about the “tumor development after re-challenge (mice out of five long-term survivors per group)” value (MCA205 cells) of the same molecule?
**A.** The value was “developed progressively growing tumors”.
